In patent US20100256104A1, “NOVEL AMIDE COMPOUNDS” (ASTRAZENECA R&D, priority 2009, published 2010):

These compounds were tested against T1, recombinant human GR (Homo sapiens, UniProt P04150) (assay: Human Glucocorticoid Receptor (GR) Assay, fluorescence polarization competition with GS Red tracer). Conditions: 2 hours at room temperature, 100% control 10 μM Dexamethasone, XLfit model 205, read-out: Inhibition of GR binding, IC50.
T1 construct: purchased Panvera/Invitrogen P2812 (kit P2893)
T1 sequence (P04150 1-777): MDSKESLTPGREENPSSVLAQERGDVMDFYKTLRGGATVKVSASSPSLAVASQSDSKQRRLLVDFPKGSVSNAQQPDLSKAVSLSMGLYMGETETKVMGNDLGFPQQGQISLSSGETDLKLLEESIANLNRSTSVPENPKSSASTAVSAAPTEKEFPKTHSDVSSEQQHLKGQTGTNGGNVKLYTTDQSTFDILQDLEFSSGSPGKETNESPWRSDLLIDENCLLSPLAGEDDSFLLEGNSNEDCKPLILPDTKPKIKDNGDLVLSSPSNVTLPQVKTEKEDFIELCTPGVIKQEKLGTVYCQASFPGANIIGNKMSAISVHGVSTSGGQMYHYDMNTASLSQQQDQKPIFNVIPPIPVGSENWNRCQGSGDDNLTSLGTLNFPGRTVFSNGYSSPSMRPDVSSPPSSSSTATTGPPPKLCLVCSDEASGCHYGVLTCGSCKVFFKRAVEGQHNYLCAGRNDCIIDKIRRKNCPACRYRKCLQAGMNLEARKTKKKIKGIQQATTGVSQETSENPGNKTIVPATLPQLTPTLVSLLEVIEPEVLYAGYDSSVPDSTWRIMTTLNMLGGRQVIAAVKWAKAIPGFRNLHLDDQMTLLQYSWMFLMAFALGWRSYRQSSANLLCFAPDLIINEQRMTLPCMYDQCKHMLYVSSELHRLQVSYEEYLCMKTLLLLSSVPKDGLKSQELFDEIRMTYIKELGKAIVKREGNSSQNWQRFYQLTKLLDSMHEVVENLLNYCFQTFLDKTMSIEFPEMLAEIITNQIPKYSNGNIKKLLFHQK
Protocol: Human Glucocorticoid Receptor (GR) Assay The assay is based on a commercial kit from Panvera/Invitrogen (Part number P2893). The assay technology is fluorescence polarization. The kit utilises recombinant human GR (Panvera, Part number P2812), a Fluoromone™ labelled tracer (GS Red, Panvera, Part number P2894) and a Stabilizing Peptide 10X (Panvera, Part number P2815). The GR and Stabilizing Peptide reagents are stored at −70° C. while the GS Red is stored at −20° C. Also included in the kit are 1M DTT (Panvera, Part number P2325, stored at −20° C.) and GR Screening buffer 10X (Panvera, Part number P2814, stored at −70° C. initially but once thawed stored at room temperature). Avoid repeated freeze/thaws for all reagents. The GR Screening buffer 10X comprises 100 mM potassium phosphate, 200 mM sodium molybdate, 1 mM EDTA and 20% DMSO. Test compounds (1 μL) and controls (1 μL) in 100% DMSO were added to black polystyrene 384-well plates (Greiner low volume black flat-bottom, part number 784076). 0% control was 100% DMSO and 100% control was 10 μM Dexamethasone. Background solution (8 μL; assay buffer 10X, Stabilizing Peptide, DTT and ice cold MQ water) was added to the background wells. GS Red solution (7 μL; assay buffer 10X, Stabilizing Peptide, DTT, GS Red and ice cold water) was added to all wells except background wells. GR solution (7 μL; assay buffer 10X, Stabilizing Peptide, DTT, GR and ice cold water) was added to all wells. The plate was sealed and incubated in a dark at room temperature for 2 hours. The plate was read in an Analyst plate reader (LJL Biosystems/Molecular Devices Corporation) or other similar plate reader capable of recording fluorescence polarization (excitation wavelength 530 nm, emission wavelength 590 nm and a dichroic mirror at 561 nm).

IC50	Structure (SMILES)
6 nM	CCC(=O)O[C@]1(C(=O)SCC#N)CC[C@H]2[C@@H]3CCC4=Cc5c(cnn5-c5cccc(C(=O)N6CCC[C@@H]6C(N)=O)c5)C[C@]4(C)[C@H]3[C@@H](O)C[C@@]21C [Example 14, (1R,3aS,3bS,10aR,10bS,11S,12aS)-7-(3-{[(2R)-2-Carbamoylpyrrolidin-1-yl]carbonyl}phenyl)-1-{[(cyanomethyl)sulfanyl]carbonyl}-11-hydroxy-10a,12a-dimethyl-1,2,3,3a,3b,4,5,7,10,10a,10b,11,12,12a-tetradecahydrocyclopenta[5,6]naphtho[1,2-f]indazol-1-yl propanoate]
8.6 nM	COCC(=O)O[C@]1(C(=O)SC)CC[C@H]2[C@@H]3CCC4=Cc5c(cnn5-c5cccc(C(=O)N6CCC[C@@H]6C(N)=O)c5)C[C@]4(C)[C@@]3(F)[C@@H](O)C[C@@]21C [Example 56, (1R,3aS,3bS,10aS,10bR,11S,12aS)-7-(3-{[(2R)-2-carbamoylpyrrolidin-1-yl]carbonyl}phenyl)-10b-fluoro-11-hydroxy-10a,12a-dimethyl-1-[(methylsulfanyl)carbonyl]-1,2,3,3a,3b,4,5,7,10,10a,10b,11,12,12a-tetradecahydrocyclopenta[5,6]naphtho[1,2-f]indazol-1-yl methoxyacetate]
8.3 nM	COCC(=O)O[C@]1(C(=O)SCF)CC[C@H]2[C@@H]3C[C@H](C)C4=Cc5c(cnn5-c5cccc(C(=O)NCC(N)=O)c5)C[C@]4(C)[C@H]3[C@@H](O)C[C@@]21C [Example 38, (1R,3aS,3bS,5S, 10aR,10bS,11S,12aS)-7-{3-[(2-amino-2-oxoethyl)carbamoyl]phenyl}-1-{[(fluoromethyl)sulfanyl]carbonyl}-11-hydroxy-5,10a, 12a-trimethyl-1,2,3,3a,3b,4,5,7,10, 10a,10b,11,12,12a-tetradecahydrocyclo-penta[5,6]naphtho [1,2-f]indazol-1-yl methoxyacetate]
1.5 nM	CSCCNC(=O)c1cccc(-n2ncc3c2C=C2CC[C@@H]4[C@H]([C@@H](O)C[C@@]5(C)[C@H]4CC[C@]5(OC(=O)C4CC4)C(=O)SCF)[C@@]2(C)C3)c1 [Example 10, (1R,3aS,3bS,10aR,10bS,11S,12aS)-1-{[(Fluoromethyl)sulfanyl]carbonyl}-11-hydroxy-10a,12a-dimethyl-7-(3-{[2-(methylsulfanyl)ethyl]carbamoyl}phenyl)-1,2,3,3a,3b,4,5,7,10,10a,10b,11,12,12a-tetradecahydrocyclopenta[5,6]naphtho[1,2-f]indazol-1-yl cyclopropanecarboxylate]
3 nM	COCC(=O)O[C@]1(C(=O)SCF)CC[C@H]2[C@@H]3CCC4=Cc5c(cnn5-c5cccc(C(=O)N[C@@H]6CCOC6)c5)C[C@]4(C)[C@H]3[C@@H](O)C[C@@]21C [Example 40, (1R,3aS,3bS,10aR, 10bS,11S,12aS)-1-{[(fluoromethyl)sulfanyl]carbonyl}-11-hydroxy-10a,12a-dimethyl-7-{3-[(3R)-tetrahydrofuran-3-ylcarbamoyl]phenyl}-1,2,3,3a,3b,4,5,7,10, 10a,10b,11,12,12a-tetradecahydrocyclo-penta[5,6]naphtho [1,2-f]indazol-1-yl methoxyacetate]
0.91 nM	CSCCNC(=O)c1cccc(-n2ncc3c2C=C2CC[C@@H]4[C@H]([C@@H](O)C[C@@]5(C)[C@H]4CC[C@]5(OC(=O)C4CC4)C(=O)SCC#N)[C@@]2(C)C3)c1 [Example 9, (1R,3aS,3bS,10aR,10bS,11S,12aS)-1-{[(Cyanomethyl)sulfanyl]carbonyl}-11-hydroxy-10a,12a-dimethyl-7-(3-{[2-(methylsulfanyl)ethyl]carbamoyl}phenyl)-1,2,3,3a,3b,4,5,7,10,10a,10b,11,12,12a-tetradecahydrocyclopenta[5,6]naphtho[1,2-f]indazol-1-yl cyclopropanecarboxylate]
